Data published in publication PMC6792352, “Limited Chemical Structural Diversity Found to Modulate Thyroid Hormone Receptor in the Tox21 Chemical Library” (Environmental Health Perspectives, 2019).
Structures can show the parent of a compound that is named as a salt. Where two headings read alike, the source gives them in different places.

Tests used:
[1] = in vitro; conditions: rat, gh3-tre-luc cells, AC50 (uM) modified / 1000
[2] = test system: GH3-TRE-Luc cell line; conditions: read-out: AC50 (uM) modified / 1000, viability, 1 nM T3 present, 24 h

`Oc1ccc2ccccc2c1N=Nc1ccccc1` [C.I. Solvent Yellow 14] showed a CC50 at 24 h [1] of over 90 µM and a CC50 ([2]; Tox21_110001=Tox21_300297) of 62.3 µM.
`CCc1cc(Cl)c(OC)c(C(=O)NC[C@@H]2CCCN2CC)c1O` [Eticlopride hydrochloride] showed a CC50 at 24 h [1] of 19.6 µM, a CC50 ([2]; Tox21_110001=Tox21_111229) of 25.3 µM and a CC50 ([2]; Tox21_110001=Tox21_113585) of 33.6 µM.
`O=Nc1ccc(Nc2ccccc2)cc1` [4-Nitrosodiphenylamine] gave a CC50 at 24 h [1] of 8.75 µM and a CC50 ([2]; Tox21_110001=Tox21_302822) of 14.9 µM.
`CCc1cccc(CC)c1N(COC)C(=O)CCl` [Alachlor] gave a CC50 at 24 h [1] of over 90 µM and a CC50 ([2]; Tox21_110001=Tox21_300713) of 78.7 µM.
With `O=c1c(O)c(-c2ccc(O)cc2)oc2cc(O)cc(O)c12` [Kaempferol] the CC50 at 24 h [1] was 66.6 µM and the CC50 ([2]; Tox21_110001=Tox21_303363) was 50 µM.
For `Clc1ccccc1C(c1ccccc1)(c1ccccc1)n1ccnc1` [Clotrimazole], the CC50 at 24 h [1] was 5.21 µM and the CC50 ([2]; Tox21_110001=Tox21_110111) was 8.57 µM.
`CCCN(CCC)c1c([N+](=O)[O-])cc(C(F)(F)F)cc1[N+](=O)[O-]` [Trifluralin] gave a CC50 at 24 h [1] of over 90 µM and a CC50 ([2]; Tox21_110001=Tox21_300918) of 62.5 µM.
`CCN(CC)CCOc1ccc(C(=C(Cl)c2ccccc2)c2ccccc2)cc1` [Clomiphene] showed a CC50 at 24 h [1] of 6.61 µM and a CC50 ([2]; Tox21_110001=Tox21_113110) of 7.27 µM.
With `O=C(O[C@@H]1Cc2c(O)cc(O)cc2O[C@@H]1c1cc(O)c(O)c(O)c1)c1cc(O)c(O)c(O)c1` [(-)-Epigallocatechin gallate] the CC50 at 24 h [1] was 48.4 µM and the CC50 ([2]; Tox21_110001=Tox21_303457) was 50.7 µM.
For `Cc1ccc(S(=O)(=O)Oc2ccc(N=Nc3ccc(-c4ccc(N=Nc5c(O)ccc6cc(S(=O)(=O)O)cc(S(=O)(=O)O)c56)c(C)c4)cc3C)cc2)cc1` [C.I. Acid Red 114], the CC50 at 24 h [1] was 32.3 µM and the CC50 ([2]; Tox21_110001=Tox21_302977) was 17.5 µM.
In the case of `O=C(O)C1=NN(c2ccc(S(=O)(=O)O)cc2)C(=O)C1N=Nc1ccc(S(=O)(=O)O)cc1` (stereo not shown) [FD&C Yellow 5], the CC50 at 24 h [1] is reported as over 50 µM, the CC50 ([2]; Tox21_110001=Tox21_201539) is reported as 43.1 µM and the CC50 ([2]; Tox21_110001=Tox21_300554) is reported as 61.1 µM.
For `O=C1CN(/N=C/c2ccc([N+](=O)[O-])o2)C(=O)N1` [Nitrofurantoin], the CC50 at 24 h [1] was 62.5 µM and the CC50 ([2]; Tox21_110001=Tox21_300602) was 70.6 µM.
For `N#Cc1nn(-c2c(Cl)cc(C(F)(F)F)cc2Cl)c(N)c1[S+]([O-])C(F)(F)F` (stereo not shown) [Fipronil], the CC50 at 24 h [1] was 49.6 µM and the CC50 ([2]; Tox21_110001=Tox21_111300) was 36.1 µM.
`CC(C)(C)C(O)(CCc1ccc(Cl)cc1)Cn1cncn1` (stereo not shown) [Tebuconazole] gave a CC50 at 24 h [1] of 64.3 µM and a CC50 ([2]; Tox21_110001=Tox21_300487) of 57.7 µM.
With `CC(C)(C)c1ccc(O)c(O)c1` [4-tert-Butylcatechol] the CC50 at 24 h [1] was 43 µM and the CC50 ([2]; Tox21_110001=Tox21_400003) was 49.3 µM.
With `CC[C@H]1OC(=O)[C@H](C)[C@@H](O[C@H]2C[C@@](C)(OC)[C@@H](O)[C@H](C)O2)[C@H](C)[C@@H](O[C@@H]2O[C@H](C)C[C@H](N(C)C)[C@H]2O)[C@](C)(O)C[C@@H](C)CN(C)[C@H](C)[C@@H](O)[C@]1(C)O` [Azithromycin] the CC50 at 24 h [1] was 28.3 µM and the CC50 ([2]; Tox21_110001=Tox21_111008) was 35.5 µM.
With `Oc1c(Cl)c(Cl)c(Cl)c(Cl)c1Cl` [Pentachlorophenol] the CC50 at 24 h [1] was 34.5 µM and the CC50 ([2]; Tox21_110001=Tox21_300023) was 29.7 µM.
Work on `CCCCCCc1ccc(O)cc1O` [4-Hexylresorcinol] yielded a CC50 at 24 h [1] of 61 µM and a CC50 ([2]; Tox21_110001=Tox21_300357) of 56.7 µM.
With `CC(C)(c1ccc(OCC2CO2)cc1)c1ccc(OCC2CO2)cc1` (stereo not shown) [Bisphenol A diglycidyl ether] the CC50 at 24 h [1] was 66.1 µM and the CC50 ([2]; Tox21_110001=Tox21_303315) was 61.9 µM.
`Cc1ccc(O)c(C(C)(C)C)c1` [2-tert-Butyl-4-methylphenol] gave a CC50 at 24 h [1] of 89.6 µM and a CC50 ([2]; Tox21_110001=Tox21_303003) of 69.9 µM.
Compound `Nc1ccc(O)cc1` [4-Aminophenol] has a CC50 at 24 h [1] of 16.6 µM, a CC50 ([2]; Tox21_110001=Tox21_113242) of 9.32 µM and a CC50 ([2]; Tox21_110001=Tox21_201030) of 17.1 µM.
In the case of `c1cc(OCC2CO2)ccc1Cc1ccc(OCC2CO2)cc1` (stereo not shown) [Bis[4-(glycidyloxy)phenyl]methane], the CC50 at 24 h [1] is reported as 42.4 µM and the CC50 ([2]; Tox21_110001=Tox21_303420) is reported as 48.6 µM.
`O=C1NCCN1CCN1CCC(c2cn(-c3ccc(F)cc3)c3ccc(Cl)cc23)CC1` [Sertindole] showed a CC50 at 24 h [1] of 5.55 µM and a CC50 ([2]; Tox21_110001=Tox21_113421) of 6.74 µM.
In the case of `CCCCCCCOC(=O)c1ccc(O)cc1` [Heptylparaben], the CC50 at 24 h [1] is reported as 47.8 µM and the CC50 ([2]; Tox21_110001=Tox21_303458) is reported as 50.7 µM.
Compound `CCCCC/C=C\C/C=C\CCCCCCCC(=O)O` [Linoleic acid] has a CC50 at 24 h [1] of over 90 µM and a CC50 ([2]; Tox21_110001=Tox21_303080) of 58.3 µM.
Work on `C=CC(=O)OCC(CO)(COC(=O)C=C)COC(=O)C=C` [Pentaerythritol triacrylate] yielded a CC50 at 24 h [1] of 1.77 µM and a CC50 ([2]; Tox21_110001=Tox21_303252) of 2.61 µM.
